Source: patent US20220370556A1, “Method of Treatment” (Volution Immuno Pharmaceuticals SA, priority 2019, published 2022)

Assays:
[1] = target: Human BLT1 G-protein coupled receptor; settings: high affinity receptor, ref. [12]; cited from earlier work
[2] = target: T1, nomacopan (EV576, OmCI protein, Coversin), Ornithodoros moubata, mature form, amino acids 19 to 168 of SEQ ID NO: 2 (SEQ ID NO: 4) (Ornithodoros moubata, UniProt Q5YD59); experiment: Fluorescence titration of LTB4 binding to nomacopan; settings: 100 nM nomacopan in PBS, 20° C., excitation 280 nm, emission 340 nm
T1 sequence (Q5YD59 19-168): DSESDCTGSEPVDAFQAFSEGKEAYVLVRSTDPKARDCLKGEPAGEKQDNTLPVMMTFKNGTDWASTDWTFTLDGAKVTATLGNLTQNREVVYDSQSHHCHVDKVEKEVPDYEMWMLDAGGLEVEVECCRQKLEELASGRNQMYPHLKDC
Excerpt: The ability of a nomacopan-type protein to bind LTB4 may be determined by standard in vitro assays known in the art, for example by means of a competitive ELISA between nomacopan and anti-LTB4 antibody competing for binding to labelled LTB4, by isothermal titration calorimetry or by fluorescence titration. […] For example, binding activity for LTB4 (Caymen Chemicals, Ann Arbor, Mich., USA) in phosphate buffered saline (PBS) can be quantified in a spectrofluorimeter e.g. a LS 50 B spectrofluorimeter (Perkin-Elmer, Norwalk, Conn., USA). This may be carried out by may be carried out as follows:
Purified 100 nM solutions of nomacopan, in 2 mL PBS were applied in a quartz cuvette (10 mm path length; Hellma, Mühlheim, Germany) equipped with a magnetic stirrer.
Temperature was adjusted to 20° C. and, after equilibrium was reached, protein Tyr/Trp fluorescence was excited at 280 nm (slit width: 15 nm). The fluorescence emission was measured at 340 nm (slit width: 16 nm) corresponding to the emission maximum. A ligand solution of 30 μM LTB4 in PBS was added step-wise, up to a maximal volume of 20 μL (1% of the whole sample volume), and after 30 s incubation steady state fluorescence was measured. […]

[3] = target: Human BLT2 G-protein coupled receptor; settings: ref. [13]; cited from earlier work

In the case of `CCCCC/C=C\C[C@@H](O)/C=C/C=C/C=C\[C@@H](O)CCCC(=O)O` [LTB4, Leukotriene B4], the Kd [1] is listed as 0.39 to 1.5 nM, the Kd [2] is listed as 0.1 to 0.3 nM and the Kd [3] is listed as 23 nM.
